In patent US11034725B2, “Compositions and methods for treating cardiovascular disease” (Genentech, Inc., priority 2016, dated 2021):
Like-named read-outs stand apart in the source and are kept apart here. Numbered stars: 1 amine (or outer) side, 2 acyl side, 3 side chain; on linkers, the order of the positions; unused ones are H or OH. Bridge positions count the residues as written; N and C are the ends. Square brackets hold non-standard residues; d marks the D form. Peptide text beside a SMILES is read from it. * marks the point of attachment. Trp(6-Br) = N[C@@H](Cc1c[nH]c2cc(Br)ccc12)C(=O)O; Fmoc = O=C(OCC1c2ccccc2-c2ccccc21)*; X9 = O=C([C@@H]1C(O)CCN1[*:1])[*:2]; Aun = NCCCCCCCCCCC(=O)O; Pentanoyl = CCCCC(=O)*

Legend:
His-EGF(A)-Fc = His-EGF(A)-Fc TR-FRET counterscreen
PCSK9Δhelix = target: T1, PCSK9Δhelix (Homo sapiens, UniProt Q8NBP7); assay: PCSK9Δhelix/Ab20 TR-FRET binding assay
T1 construct: Human PCSK9 construct M1-Q692 with an engineered TEV site (residue deletion Y166, R167); made in house; host or cells: CHO

[1] = TR-FRET, Example 7, read-out: PCSK9Δhelix/Ab20 IC50
[2] = TR-FRET counterscreen, Table 8D, * = some inhibition at highest concentrations, not sufficient to fit an IC50

T1 sequence (Q8NBP7 with tags, fused parts or gaps limits assumed): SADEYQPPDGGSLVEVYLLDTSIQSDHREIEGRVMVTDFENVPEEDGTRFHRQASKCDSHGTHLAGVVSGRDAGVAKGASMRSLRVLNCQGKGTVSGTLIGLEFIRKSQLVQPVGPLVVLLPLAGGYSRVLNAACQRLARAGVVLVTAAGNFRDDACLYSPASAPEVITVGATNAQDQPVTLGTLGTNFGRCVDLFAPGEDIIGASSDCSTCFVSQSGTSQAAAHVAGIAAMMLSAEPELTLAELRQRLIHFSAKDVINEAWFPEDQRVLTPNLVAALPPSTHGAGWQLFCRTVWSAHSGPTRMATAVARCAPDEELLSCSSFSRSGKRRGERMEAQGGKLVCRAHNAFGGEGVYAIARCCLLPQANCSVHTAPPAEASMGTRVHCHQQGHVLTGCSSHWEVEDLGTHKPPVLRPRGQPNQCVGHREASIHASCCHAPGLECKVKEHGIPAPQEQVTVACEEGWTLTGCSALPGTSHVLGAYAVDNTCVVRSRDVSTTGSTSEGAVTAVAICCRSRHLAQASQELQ
T1 sequence (Q8NBP7 31-152 partner limits assumed): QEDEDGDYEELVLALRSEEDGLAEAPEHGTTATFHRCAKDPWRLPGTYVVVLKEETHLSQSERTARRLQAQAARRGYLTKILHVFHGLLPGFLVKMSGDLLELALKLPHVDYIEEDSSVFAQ

Row | Molecule | IC50 (His-EGF(A)-Fc; counterscreen, Example 7) | IC50 (PCSK9Δhelix; [1]) | IC50 (His-EGF(A)-Fc; [2]) | other results
1 | Ac-TVFTSWEEYLDWVGSGKLWNL-NH2 [Compound 6] | > 50 µM | 10 µM |  | 
2 | CC(=O)N[C@H](C(=O)N[C@H](C(=O)N[C@@H](Cc1ccccc1)C(=O)N[C@H](C(=O)N[C@@H](CO)C(=O)N[C@@H](Cc1c[nH]c2ccccc12)C(=O)N[C@@H](CCC(=O)O)C(=O)N[C@@H](CCC(=O)O)C(=O)N[C@@H](Cc1ccc(O)cc1)C(=O)N[C@@H](CC(C)C)C(=O)N[C@@H](CC(=O)O)C(=O)N[C@@H](Cc1c[nH]c2ccccc12)C(=O)N[C@H](C(=O)NCCCCCC(=O)N[C@@H](C)C(=O)N[C@@H](Cc1c[nH]c2ccccc12)C(=O)N[C@@H](CC(N)=O)C(=O)N[C@@H](CC(C)C)C(=O)N[C@@H](CCCCN)C(=O)N[C@@H](CCCNC(=N)N)C(N)=O)C(C)C)[C@@H](C)O)C(C)C)[C@@H](C)O [Compound 94] | > 50 µM | 1.41 µM |  | 
3 | CC[C@H](C)[C@@H]1NC(=O)[C@H](CCCNC(=N)N)NC(=O)[C@H](CCCCN)NC(=O)[C@H](CC(C)C)NC(=O)[C@H](CC(N)=O)NC(=O)[C@H](Cc2c[nH]c3ccccc23)NC(=O)[C@@H](NC(=O)CNC(=O)[C@H](CO)NC(=O)CNC(=O)OCC2c3ccccc3-c3ccccc32)CSSC[C@@H](C(N)=O)NC(=O)CNC(=O)[C@H](CCC(N)=O)NC(=O)[C@H](CO)NC(=O)CNC1=O [Compound 98] (Fmoc-GSGCWNLKRIGSQGC-NH2; disulfide 4-15) |  |  | > 50 µM | IC50 (PCSK9Δhelix; PCSK9Δhelix/Ab20 IC50, TR-FRET, Example 7): 3.6 µM
4 | Ac-TVFTSWEEYLDWVGSGKLWNLGR-NH2 [Compound 4] | > 50 µM | 1.52 µM |  | 
5 | CC[C@H](C)[C@@H]1NC(=O)[C@H](CCCNC(=N)N)NC(=O)[C@H](CCCCN)NC(=O)[C@H](CC(C)C)NC(=O)[C@H](CC(N)=O)NC(=O)[C@H](Cc2c[nH]c3ccccc23)NC(=O)[C@H](CC(C)C)NC(=O)[C@@H](NC(=O)[C@H](CCSC)NC(C)=O)CSSC[C@@H](C(=O)N[C@@H](CCC(=O)O)C(=O)N[C@@H](Cc2ccc(O)cc2)C(N)=O)NC(=O)[C@H](CCC(N)=O)NC(=O)[C@H](CO)NC(=O)CNC1=O [Compound 63] (Ac-MCLWNLKRIGSQCEY-NH2; disulfide 2-13) |  |  | 41 µM | inhibition in the PCSK9Δhelix/Ab20 binding assay (PCSK9Δhelix): low micromolar range; IC50 (PCSK9Δhelix; TR-FRET, Table 8D, disulfide-cyclized extension peptides, read-out: PCSK9Δhelix/Ab20 IC50): 6 µM
6 | Ac-TVFTSWEEYLDWVGSGKLWNLG-NH2 [Compound 5] | > 50 µM | 11.1 µM |  | 
7 | CC(=O)N[C@H]1CSSC[C@@H](C(N)=O)NC(=O)CCCCCCCCCCNC(=O)[C@H](CCCNC(=N)N)NC(=O)[C@H](CCC(N)=O)NC(=O)[C@H](CC(C)C)NC(=O)[C@H](CC(N)=O)NC(=O)[C@H](Cc2c[nH]c3ccccc23)NC(=O)[C@@H]2CCCN2C(=O)[C@H](CC(C)C)NC(=O)[C@H](CCCNC(=N)N)NC1=O [Compound 83] (Ac-CRLPWNLQR[Aun]C-NH2; disulfide 1-11 (inferred)) |  |  | > 50 µM | inhibition in the PCSK9Δhelix/Ab20 binding assay (PCSK9Δhelix): removes inhibition
8 | CC[C@H](C)[C@@H]1NC(=O)[C@H](CCCNC(=N)N)NC(=O)[C@H](CCCCN)NC(=O)[C@H](CC(C)C)NC(=O)[C@H](CC(N)=O)NC(=O)[C@H](Cc2c[nH]c3ccccc23)NC(=O)[C@@H](NC(=O)CNC(=O)[C@H](CO)NC(=O)CNC(C)=O)CSSC[C@@H](C(=O)N[C@@H](Cc2c[nH]c3ccccc23)C(N)=O)NC(=O)CNC(=O)[C@H](CCC(N)=O)NC(=O)[C@H](CO)NC(=O)CNC1=O [Compound 40] (Ac-GSGCWNLKRIGSQGCW-NH2; disulfide 4-15) |  |  | > 50 µM | IC50 (PCSK9Δhelix; PCSK9Δhelix/Ab20 IC50, TR-FRET, Table 8D, disulfide-cyclized extension peptides): 2.41 µM
9 | CC[C@H](C)[C@@H]1NC(=O)[C@H](CCCNC(=N)N)NC(=O)[C@H](CCC(N)=O)NC(=O)[C@H](CC(C)C)NC(=O)[C@H](CC(N)=O)NC(=O)[C@H](Cc2c[nH]c3ccccc23)NC(=O)[C@@H]2CCCN2C(=O)[C@H](CC(C)C)NC(=O)[C@H](Cc2ccccc2)NC(=O)[C@@H](NC(=O)CNC(=O)CNC(=O)[C@H](CO)NC(=O)CNC(=O)[C@@H](NC(=O)[C@H](Cc2c[nH]c3ccccc23)NC(=O)[C@H](CC(=O)O)NC(=O)[C@H](CC(C)C)NC(=O)[C@H](Cc2ccc(O)cc2)NC(=O)[C@H](CCC(=O)O)NC(=O)[C@H](CCC(=O)O)NC(=O)[C@H](Cc2c[nH]c3ccccc23)NC(=O)[C@H](CO)NC(=O)[C@@H](NC(=O)[C@H](Cc2ccccc2)NC(=O)[C@@H](NC(=O)[C@@H](NC(C)=O)[C@@H](C)O)C(C)C)[C@@H](C)O)C(C)C)CSSC[C@@H](C(N)=O)NC(=O)[C@H](CC(C)C)NC(=O)[C@H](CC(C)C)NC(=O)CNC1=O [Compound 38] (Ac-TVFTSWEEYLDWVGSGGCFLPWNLQRIGLLC-NH2; disulfide 18-31) | > 50 µM | 0.003 µM |  | inhibition in the PCSK9Δhelix/Ab20 binding assay (PCSK9Δhelix): potent inhibitors
10 | Ac-TVFTSWEEYLDWVGGSGKLWNLGRV-NH2 [Compound 8] | > 50 µM | 0.049 µM |  | 
11 | CC(=O)N[C@H](C(=O)N[C@H](C(=O)N[C@@H](Cc1ccccc1)C(=O)N[C@H](C(=O)N[C@@H](CO)C(=O)N[C@@H](Cc1c[nH]c2ccccc12)C(=O)N[C@@H](CCC(=O)O)C(=O)N[C@@H](CCC(=O)O)C(=O)N[C@@H](Cc1ccc(O)cc1)C(=O)N[C@@H](CC(C)C)C(=O)N[C@@H](CC(=O)O)C(=O)N[C@@H](Cc1c[nH]c2ccccc12)C(=O)N[C@H](C(=O)NCCCCCC(=O)N[C@@H](CCCCN)C(=O)N[C@@H](CC(C)C)C(=O)N[C@@H](Cc1c[nH]c2ccccc12)C(=O)N[C@@H](CC(N)=O)C(=O)N[C@@H](CC(C)C)C(=O)NCC(=O)N[C@@H](CCCNC(=N)N)C(=O)N[C@H](C(N)=O)C(C)C)C(C)C)[C@@H](C)O)C(C)C)[C@@H](C)O [Compound 18] | > 50 µM | 0.04 µM |  | 
12 | CC(=O)N[C@H](C(=O)N[C@H](C(=O)N[C@@H](Cc1ccccc1)C(=O)N[C@H](C(=O)N[C@@H](CO)C(=O)N[C@@H](Cc1c[nH]c2ccccc12)C(=O)N[C@@H](CCC(=O)O)C(=O)N[C@@H](CCC(=O)O)C(=O)N[C@@H](Cc1ccc(O)cc1)C(=O)N[C@@H](CC(C)C)C(=O)N[C@@H](CC(=O)O)C(=O)N[C@@H](Cc1c[nH]c2ccccc12)C(=O)N[C@H](C(=O)NCC(=O)N[C@@H](CO)C(=O)NCC(=O)N[C@H]1CSSC[C@@H](C(N)=O)NC(=O)CNC(=O)[C@H](CCC(N)=O)NC(=O)[C@H](CO)NC(=O)CNC(=O)[C@H](C(C)C)NC(=O)[C@H](CCCNC(=N)N)NC(=O)[C@H](CCCCN)NC(=O)[C@H](CC(C)C)NC(=O)[C@H](CC(N)=O)NC(=O)[C@H](Cc2c[nH]c3ccccc23)NC1=O)C(C)C)[C@@H](C)O)C(C)C)[C@@H](C)O [Compound 12] (Ac-TVFTSWEEYLDWVGSGCWNLKRVGSQGC-NH2; disulfide 17-28) | > 50 µM |  |  | 
13 | CC[C@H](C)[C@@H]1NC(=O)[C@H](CCCNC(=N)N)NC(=O)[C@H](CCC(N)=O)NC(=O)[C@H](CC(C)C)NC(=O)[C@H](CC(N)=O)NC(=O)[C@H](Cc2c[nH]c3ccccc23)NC(=O)[C@@H]2C(O)CCN2C(=O)[C@H](CC(C)C)NC(=O)[C@H](CCCNC(=N)N)NC(=O)[C@@H](NC(=O)CNC(=O)[C@H](CO)NC(C)=O)CSSC[C@@H](C(N)=O)NC(=O)[C@@H]2CCCN2C(=O)[C@H](CC(C)C)NC(=O)CNC1=O (stereo partly drawn) [Compound 37] (Ac-SGCRL[X9]WNLQRIGLPC-NH2; disulfide 3-16) |  |  | > 50 µM | 
14 | CCCCC(=O)N[C@@H](Cc1c[nH]c2cc(Br)ccc12)C(=O)N[C@@H](CC(N)=O)C(=O)N[C@@H](CC(C)C)C(=O)N[C@H](C(=O)N[C@@H](CCCNC(=N)N)C(=O)N[C@H](C(=O)NCC(=O)N[C@@H](CC(C)C)C(=O)N[C@H](C(=O)N[C@@H](CCCNC(=N)N)C(N)=O)[C@@H](C)O)[C@@H](C)CC)C(C)C [Compound 187] (Pentanoyl-[Trp(6-Br)]NLVRIGLTR-NH2) |  |  |  | IC50 (His-EGF(A)-Fc; TR-FRET counterscreen, Table 8E, additional compounds): 38 µM
